# Data: patent US20200360331A1, “COMPOSITIONS COMPRISING 15-HEPE AND/OR 15-HETrE AND METHODS OF TREATING OR PREVENTING CARDIOMETABOLIC DISEASE, METABOLIC SYNDROME, AND/OR RELATED DISEASES” (Afimmune Limited, priority 2019, published 2020)
# Entries after “also recorded” stand apart in the source; their conditions may differ.
# How the values were obtained:
# [1] = tested on: TGF-β-stimulated intracellular signaling (SMAD2/3 phosphorylation); assay: TGF-β-stimulated SMAD2/3 phosphorylation in LX2 liver stellate cells; format: cell-based, human; conditions: 0 μM to 100 μM for 24 hours, then 30 min TGF-β stimulation
# [2] = tested on: TβR-II (type II TGF-β receptor); assay: Sucrose density gradient analysis in Mv1Lu cells, TβR-II; format: cell-based, mink; conditions: summary, free acid or ethyl ester form
# Experimental: Sucrose gradient ultracentrifugation and confocal microscopy were used to identify 15-HEPE induced microdomain translocation of TGF-β receptors by sucrose. Sucrose density gradient analysis of TGF-β receptors was conducted in the plasma membranes of Mv1Lu cells (mink lung epithelial cell) treated with 100 μM of 15-HEPE and an equal volume of DMSO (dimethyl sulfoxide) at 37° C. for 0, 1, 4, and 24 hours, and the cell lysates from these treated cells were subjected to sucrose density gradient ultracentrifugation. The sucrose gradient fractions were then analyzed by Western blot analysis using anti-TβR-I (type I TGF-β receptor), anti-TβR-II (type II TGF-β receptor), anti-TβR-III (type III TGF-β receptor, betaglycan), anti-EGFR (epidermal growth factor receptor), and anti-caveolin-1 antibodies. The lipid raft/caveolae, and non-lipid raft microdomain localization of TβR-I, TβR-II, TβR-III, EGFR and caveolin-1 in the plasma membrane of untreated cells or cells treated with 15-HEPE were assessed to determine the effects of 15-HEPE on the membrane microdomain localization of the TGF-β receptors.
# A 15-HEPE sucrose density gradient analysis of TGF-β receptors was conducted in the plasma membranes of mink lung epithelial cell (Mv1 Lu) cells treated with 100 μM of 15-HEPE and an equal volume of dimethyl sulfoxide (DMSO) at 37° C. for 0, 1, 4, and 24 hours, and the cell lysates from these treated cells were subjected to sucrose density gradient ultracentrifugation. The sucrose gradient fractions were then analyzed by Western blot analysis using anti-TβR-I (type I TGF-β receptor—FIG. 18C), anti-TβR-II (type II TGF-β receptor—FIG. 18D), anti-TβR-III (type III TGF-β receptor, betaglycan—FIG. 18E), anti-EGFR (epidermal growth factor receptor—FIG. 18F), and anti-caveolin-1 antibodies (FIG. 18G). Fractions 4 to 5 contained lipid rafts/caveolae whereas fractions 7-10 were non-lipid raft fractions. […] Stars (★) indicate 15-HEPE increased abundance of TβR-I (24 hours) in the fraction in comparison with that of the control and shorter treatment durations (FIG. 18C). […] The triangles (▾) indicate translocation and decreased abundance of TβR-II in the fraction in comparison with control cells (FIG. 18D).
# [3] = tested on: TGF-β induced epithelial mesenchymal transition (EMT) protein production; assay: TGF-β induced EMT protein production in HepG2 cells; format: cell-based, human; conditions: increasing doses for 1 hour, then 200 pM TGF-β for 48 hours
# Experimental: The effects of 15-HEPE on TGF-β-induced signaling and cellular responses were determined. To test the effect of 15-HEPE on TGF-β-induced signaling, the activities of 15-HEPE to regulate TGF-β-stimulated Smad2 phosphorylation and nuclear translocation, both of which are key signaling events leading to TGF-β-induced cellular responses, were tested. One important biological activity of TGF-β is transcriptional activation of genes responsible for epithelial-mesenchymal transition (EMT), which is a crucial event in wound healing, tissue fibrosis, and cancer progression. The effect of 15-HEPE on TGFβ-induced epithelial mesenchymal transition related proteins (such as fibronectin, PAI-1, and N-cadherin etc.) expression in HepG2 and […] cells were assessed. HepG2 cells (human hepatoma cell line) were treated in increasing doses of 15-HEPE stage II in DMEM containing 0.1% of FBS for 1 hour and continually stimulated with or without 200 picomolar (pM) of TGF-β for 48 hours.
# HepG2 cells (human hepatoma cell line) were treated in increasing doses of 15-HEPE stage II in DMEM containing 0.1% of FBS for 1 hour and continually stimulated with or without 200 picomolar (pM) of TGF-β for 48 hours. The two panels shown in FIG. 18A are two separate experiments run under the same experimental conditions.
# [4] = tested on: UUO mice; assay: UUO study: kidney hydroxyproline content; format: in vivo, C57BL/6 mice
# Experimental: (§1) UUO Surgery: On day 0 of the study, UUO surgery was performed on mice under pentobarbital sodium anesthesia. The mouse's hair was first shaved and then abdomen cut open to exteriorize the mouse's left ureter. The ureter was ligated 4-0 nylon sutures at two points. The mouse's peritoneum and skin were then closed with sutures, and the mouse transferred to a clean cage until recovered from the anesthesia. Sham operated mice had their left ureter exposed but not ligated.
# Measurement of Kidney Biochemistry: To quantify kidney hydroxyproline content, frozen left kidney samples were processed by an alkaline-acid hydrolysis method as follows: kidney samples were dissolved in 2 normal (N) sodium hydroxide (NaOH) at 65° C. and autoclaved at 121° C. for 20 minutes. The lysed samples (400 μL) were acid-hydrolyzed with 400 μL of 6N hydrochloride acid (HCl) at 121° C. for 20 minutes, and neutralized with 400 μL of 4N NaOH containing 10 mg/mL of activated carbon. An AC buffer (e.g., 2.2M acetic acid/0.48M citric acid, 400 μL) was added to the samples, followed by centrifugation to collect the supernatant. A standard curve of hydroxyproline was constructed with serial dilutions of trans-4-hydroxy-L-proline (Sigma-Aldrich, USA) starting at 16 μg/mL. The prepared samples and standards (e.g., each 400 μL) were mixed with 400 μL chloramine T solution (Wako Pure Chemical Industries, Japan) and incubated for 25 minutes at room temperature. The samples were then mixed with Ehrlich's solution (e.g., 400 μL) and heated at 65° C. for 20 minutes to develop the color. After samples were cooled on ice and centrifuged to remove precipitates, the optical density of each supernatant was measured at 560 nanometers (nm). The concentrations of hydroxyproline were calculated from the hydroxyproline standard curve. Protein concentrations of kidney samples were determined using a bicinchoninic (BCA) protein assay kit (Thermo Fisher Scientific, USA) and used to normalize the calculated hydroxyproline values. Kidney hydroxyproline contents were expressed as microgram (μg) per mg protein.
# [5] = tested on: UUO mice; assay: UUO study: Sirius red staining of kidney sections, fibrosis area; format: in vivo, C57BL/6 mice; conditions: for Sirius red-positive area: kidney
# Experimental: as §1
# Histopathological analysis: To visualize collagen deposition, kidney sections were stained using picro-Sirius red solution (Waldeck, Germany). For quantification of interstitial fibrosis area, bright field images in the corticomedullary region were captured using a digital camera (e.g., DFC295; Leica Microsystems, Germany) at 200-fold magnification, and the positive areas in 5 fields/section were measured using ImageJ software (National Institute of Health, USA).
# [6] = UUO study: body weight, kidney weight, general condition; format: in vivo; conditions: UUO mice
# Experimental: as §1, with “ligated. […]” for “ligated.”
# Animals: Seven-week-old female C57BL/6 mice (i.e., animals) were obtained from Japan SLC, Inc. (Japan) and were housed and fed with a normal diet (CE-2; CLEA Japan, Japan) under controlled conditions. The animals were maintained in a specific-pathogen free (SPF) facility under controlled conditions of temperature (e.g., 23±2° C.), humidity (e.g., 45±10%), lighting (e.g., 12-hour artificial light and dark cycles; light from 8:00 to 20:00) and air exchange. A high pressure was maintained in the experimental room to prevent contamination of the facility. The animals were housed in TPX cages (CLEA Japan) with a maximum of 4 mice per cage. Sterilized Paper-Clean (Japan SLC) was used for bedding and replaced once a week. Sterilized solid normal diet was provided ad libitum, being placed in a metal lid on the top of the cage. Pure water was also provided ad libitum from a water bottle equipped with a rubber stopper and a sipper tube. Water bottles were replaced once a week, cleaned, and sterilized in an autoclave and reused. Mice were identified by ear punch and each cage was labeled with a specific identification code.
# Animal Monitoring and Sacrifice: The viability, clinical signs and behavior for the mice were monitored daily. Individual body weight was measured daily before treatment during the treatment period. […] The animals were sacrificed by exsanguination through direct cardiac puncture under isoflurane anesthesia (Pfizer Inc.) at Day 14.
# [7] = 50 mg/kg PO QD Day 0-13, Day 14
# [8] = 250 mg/kg PO QD Day 0-13, Day 14
SMILES,TGF-β-stimulated intracellular signaling (SMAD2/3 phosphorylation) [1],translocation and degradation of type II TGF-β receptors [2],TGF-β induced EMT (pro-fibrotic) protein production [3],kidney hydroxyproline contents compared with the Vehicle group ([4]; 5 mg/kg),"Kidney hydroxyproline ([4]; 5 mg/kg PO QD Day 0-13, Day 14)",kidney hydroxyproline contents compared with the Vehicle group ([4]; 50 mg/kg),"Kidney hydroxyproline [4, 7]",kidney hydroxyproline contents compared with the Vehicle group ([4]; 250 mg/kg),"Kidney hydroxyproline [4, 8]","fibrosis area compared with the Vehicle group ([5]; 5 mg/kg, Mann-Whitney U test (p<0.1))","fibrosis area compared with the Vehicle group ([5]; 50 mg/kg, Bonferroni Multiple Comparison)","fibrosis area compared with the Vehicle group ([5]; 50 mg/kg, Mann-Whitney U test (p<0.1))","fibrosis area compared with the Vehicle group ([5]; 250 mg/kg, Mann-Whitney U test (p<0.1))","Sirius red-positive area ([5]; 5 mg/kg PO QD Day 0-13, Day 14)","Sirius red-positive area [5, 7]","Sirius red-positive area [5, 8]","Body Weight ([6]; 5 mg/kg PO QD Day 0-13, Day 14)","Body Weight [6, 7]","Body Weight [6, 8]"
CCC=CCC(O)C=CC=CCC=CCC=CCCCC(=O)OCC (stereo not shown) [15-HEPE EE],inhibited TGF-β induced intracellular signaling (SMAD2/3),induced translocation and degradation of type II TGF-β receptors,blocked TGF-β induced pro-fibrotic protein production,–,–,–,–,–,–,–,–,–,–,–,–,–,–,–,–
"CCCCCC(O)/C=C/C=C\C/C=C\CCCCCCC(=O)O (stereo not shown) [DS109, 15-hydroxy-eicosa-8Z,11Z,13E-trienoic acid]",–,–,–,significant decreases,9.94 ± 2.02 μg/mg total protein,no significant difference,13.94 ± 6.44 μg/mg total protein,significant decreases,8.30 ± 1.04 μg/mg total protein,tended to decrease; also recorded: reduction trend,tended to decrease,tended to decrease; also recorded: reduction trend,tended to decrease; also recorded: reduction trend,4.23 ± 1.90%,3.58 ± 1.04%,4.71 ± 0.96%,19.1 ± 0.9 g,18.6 ± 0.6 g,18.6 ± 0.7 g
